Source: ChEMBL document CHEMBL3997829, “Discovery of novel substituted octahydropyrrolo[3,4-c]pyrroles as dual orexin receptor antagonists for insomnia treatment” (Bioorg Med Chem Lett, 2017)
Values after ≈ are worked out from the molar mass of the structure shown.

Tests used:
[1] = molecular target: T1, Orexin/Hypocretin receptor type 1 (Homo sapiens, UniProt O43613); assay: Antagonist activity at human orexin 1 receptor expressed in HEK293 cells assessed as inhibition of orexin-induced calcium mobilization after 60 mins by FLIPR assay; assay type: functional, cell-based
T1 sequence (O43613 whole entry): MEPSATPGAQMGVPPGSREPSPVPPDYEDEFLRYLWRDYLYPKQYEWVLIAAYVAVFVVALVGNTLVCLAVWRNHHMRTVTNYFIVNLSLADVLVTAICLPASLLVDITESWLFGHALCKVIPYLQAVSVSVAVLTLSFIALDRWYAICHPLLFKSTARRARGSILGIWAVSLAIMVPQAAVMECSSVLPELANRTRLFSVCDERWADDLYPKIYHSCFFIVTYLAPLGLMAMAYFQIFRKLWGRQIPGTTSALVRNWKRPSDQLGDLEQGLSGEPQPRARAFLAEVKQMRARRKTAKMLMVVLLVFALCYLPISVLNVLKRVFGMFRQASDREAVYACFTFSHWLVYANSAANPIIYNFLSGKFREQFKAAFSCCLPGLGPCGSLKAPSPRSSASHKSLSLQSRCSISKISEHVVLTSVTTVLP

Orexin receptor type 2 = molecular target: T2, Orexin receptor type 2 (Homo sapiens, UniProt O43614); assay: Antagonist activity at human orexin 2 receptor expressed in HEK293 cells assessed as inhibition of orexin-induced calcium mobilization after 60 mins by FLIPR assay; assay type: functional, cell-based
T2 sequence (O43614 whole entry): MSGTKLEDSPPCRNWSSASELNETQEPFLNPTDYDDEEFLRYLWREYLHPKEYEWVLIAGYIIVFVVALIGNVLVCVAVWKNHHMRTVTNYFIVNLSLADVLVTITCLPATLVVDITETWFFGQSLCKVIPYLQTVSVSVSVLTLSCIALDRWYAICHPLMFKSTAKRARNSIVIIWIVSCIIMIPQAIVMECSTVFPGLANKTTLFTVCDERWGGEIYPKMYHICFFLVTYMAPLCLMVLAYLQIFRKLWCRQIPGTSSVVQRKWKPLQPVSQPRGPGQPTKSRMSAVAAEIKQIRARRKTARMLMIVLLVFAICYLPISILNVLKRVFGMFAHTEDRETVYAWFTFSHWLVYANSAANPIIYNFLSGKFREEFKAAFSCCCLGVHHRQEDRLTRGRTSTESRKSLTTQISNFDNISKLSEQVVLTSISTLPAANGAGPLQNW

[2] = Thermodynamic solubility of the compound in phosphate buffer at pH 7.4 by HPLC method; assay type: physicochemical; settings: read-out: Therm_solubility
[3] = Plasma concentration in Sprague-Dawley rat at 10 mg/kg, po at 0.3 hrs; assay type: ADME, organism-based
Brain [4] = assay: Drug uptake in Sprague-Dawley rat brain at 10 mg/kg, po at 4 hrs; assay type: ADME, organism-based; settings: in vivo
[5] = Ratio of drug level in brain to plasma in Sprague-Dawley rat at 10 mg/kg, po at 0.5 hrs; assay type: ADME, organism-based; settings: read-out: BPR
[6] = Oral bioavailability in Sprague-Dawley rat at 15 mg/kg; assay type: ADME, organism-based; settings: in vivo
Brain [7] = assay: Drug uptake in Sprague-Dawley rat brain at 10 mg/kg, po at 1 hr; assay type: ADME, organism-based; settings: in vivo
[8] = Ratio of drug level in brain to plasma in Sprague-Dawley rat at 10 mg/kg, po at 1 hr; assay type: ADME, organism-based; settings: read-out: BPR
[9] = AUC in Sprague-Dawley rat at 15 mg/kg, po; assay type: ADME, organism-based; settings: in vivo
[10] = Plasma concentration in Sprague-Dawley rat at 10 mg/kg, po at 4 hrs; assay type: ADME, organism-based
[11] = Cmax in Sprague-Dawley rat at 15 mg/kg, po; assay type: ADME, organism-based; parameters: dose 15 mg/kg, route oral; settings: in vivo
[12] = Half life in Sprague-Dawley rat at 2 mg/kg, iv; assay type: ADME, organism-based; settings: in vivo
Brain [13] = assay: Drug uptake in Sprague-Dawley rat brain at 10 mg/kg, po at 0.3 hrs; assay type: ADME, organism-based; settings: in vivo
[14] = Tmax in Sprague-Dawley rat at 15 mg/kg, po; assay type: ADME, organism-based; settings: in vivo
[15] = Clearance in Sprague-Dawley rat at 2 mg/kg, iv; assay type: ADME, organism-based; settings: in vivo
[16] = Plasma concentration in Sprague-Dawley rat at 10 mg/kg, po at 1 hr; assay type: ADME, organism-based
[17] = Ratio of drug level in brain to plasma in Sprague-Dawley rat at 10 mg/kg, po at 4 hrs; assay type: ADME, organism-based; settings: read-out: BPR
Rattus norvegicus [18] = assay: Sleep promoting activity in Sprague-Dawley rat assessed as decrease in active wake time at 90 mg/kg, po measured over 2 hrs by electroencephalogram method; assay type: functional
Rattus norvegicus [19] = assay: Sleep promoting activity in Sprague-Dawley rat assessed as effect on rapid eye movement sleep time at 90 mg/kg, po measured over 2 hrs by electroencephalogram method; assay type: functional
Rattus norvegicus [20] = assay: Sleep promoting activity in Sprague-Dawley rat assessed as increase in slow wave sleep time at 90 mg/kg, po measured over 2 hrs by electroencephalogram method; assay type: functional

Structure (SMILES): Cc1ccc(-n2nccn2)c(C(=O)N2C[C@@H]3CN(c4nc5cc(OC(F)(F)F)ccc5o4)C[C@@H]3C2)c1
- IC50 [1]: 3920 nM
- IC50 (Orexin receptor type 2): 4710 nM

Structure (SMILES): Cc1ccc(-n2nccn2)c(C(=O)N2CC3CCCN(c4nc5cc(Cl)ccc5o4)C3C2)c1 (centres undefined)
- IC50 [1]: > 10000 nM
- IC50 (Orexin receptor type 2): > 10000 nM

Structure (SMILES): O=C(c1cc(OC(F)(F)F)ccc1-n1nccn1)N1C[C@@H]2CN(c3nc4cc(Cl)ccc4o3)C[C@@H]2C1
- IC50 [1]: 502 nM
- IC50 (Orexin receptor type 2): 1520 nM

Structure (SMILES): Cc1ccc(-n2nccn2)c(C(=O)N2C[C@@H]3CN(c4nc5cc(Cl)ccc5o4)C[C@@H]3C2)c1
- solubility thermodynamic [2]: < 2 µM
- concentration at 0.3 h [3]: 3370 nM
- Drug uptake (Brain [4]): 111 nmol/kg
- IC50 [1]: 226 nM
- Kp at 0.5 h [5]: 0.19
- bioavailability [6]: 27%
- Drug uptake (Brain [7]): 376 nmol/kg
- Kp at 1 h [8]: 0.15
- AUC [9]: 5.4 µM·h
- concentration at 4 h [10]: 409 nM
- IC50 (Orexin receptor type 2): 206 nM
- Cmax [11]: 2100 nM
- half-life [12]: 43.8 min
- Drug uptake (Brain [13]): 643 nmol/kg
- Tmax [14]: 25.2 min
- clearance [15]: 32 mL/min/kg
- concentration at 1 h [16]: 2500 nM
- Kp at 4 h [17]: 0.27

Structure (SMILES): Cc1ccc(-n2nccn2)c(C(=O)N2C[C@@H]3CN(c4ncc5cc(F)ccc5n4)C[C@@H]3C2)c1
- solubility thermodynamic [2]: 2.6 µM (≈ 1.15 µg/mL)
- concentration at 0.3 h [3]: 567 nM
- Drug uptake (Brain [4]; BLD = below limit of detection): Bld
- IC50 [1]: 216 nM
- Kp at 0.5 h [5]: 0.14
- Drug uptake (Brain [7]): 43 nmol/kg
- Kp at 1 h [8]: 0.13
- concentration at 4 h [10]: 24 nM
- IC50 (Orexin receptor type 2): 108 nM
- Drug uptake (Brain [13]): 80 nmol/kg
- concentration at 1 h [16]: 328 nM

Structure (SMILES): Cc1ccc(-n2nccn2)c(C(=O)N2C[C@@H]3CN(c4nc5ccccc5n4C)C[C@@H]3C2)c1
- IC50 [1]: 1640 nM
- IC50 (Orexin receptor type 2): 775 nM

Structure (SMILES): Cc1ccc(-n2nccn2)c(C(=O)N2CCCC3CN(c4nc5cc(Cl)ccc5o4)CC32)c1 (centres undefined)
- IC50 [1]: > 10000 nM
- IC50 (Orexin receptor type 2): > 10000 nM

Structure (SMILES): Cc1ccc(-n2nccn2)c(C(=O)N2CC3CCN(c4nc5cc(Cl)ccc5o4)C3C2)c1 (centres undefined)
- IC50 [1]: > 10000 nM
- IC50 (Orexin receptor type 2): > 10000 nM

Structure (SMILES): O=C(c1cc(Cl)ccc1-n1nccn1)N1C[C@@H]2CN(c3nc4cc(Cl)ccc4o3)C[C@@H]2C1
- IC50 [1]: > 10000 nM
- IC50 (Orexin receptor type 2): 1270 nM

Structure (SMILES): Cc1ccc(-n2nccn2)c(C(=O)N2CCN(c3nc4cc(Cl)ccc4o3)CC[C@H]2C)c1 [SUVOREXANT]
- Time (Rattus norvegicus [18]): 46.9 min
- Time (Rattus norvegicus [19]): 13.6 min
- Time (Rattus norvegicus [20]): 33.5 min

Structure (SMILES): Cc1ccc(-n2nccn2)c(C(=O)N2CCC3CN(c4nc5cc(Cl)ccc5o4)CC32)c1 (centres undefined)
- IC50 [1]: 2970 nM
- IC50 (Orexin receptor type 2): 354 nM

Structure (SMILES): Cc1ccc(-n2nccn2)c(C(=O)N2C[C@@H]3CN(c4nc(-c5cccc(Cl)c5)co4)C[C@@H]3C2)c1
- IC50 [1]: 1010 nM
- IC50 (Orexin receptor type 2): 2790 nM

Structure (SMILES): COc1ccc(-n2nccn2)c(C(=O)N2C[C@@H]3CN(c4nc5cc(Cl)ccc5o4)C[C@@H]3C2)c1
- IC50 [1]: 517 nM
- IC50 (Orexin receptor type 2): 387 nM

Structure (SMILES): COc1ccc2oc(N3C[C@H]4CN(C(=O)c5cc(C)ccc5-n5nccn5)C[C@H]4C3)nc2c1
- IC50 [1]: 401 nM
- IC50 (Orexin receptor type 2): 311 nM
